According to US8455397B2, “Penoxsulam as a turfgrass, vineyard and orchard floor herbicide” (Dow AgroSciences, LLC, priority 2005, dated 2013):

Tested on: Hydrocotyle species (HYDSS)
Test: Post emergent synergy field study, penoxsulam + dicamba granule
Format: in vivo
Conditions: 112 gai/Ha on 30-3-4 granule fertilizer, average of 2 studies 4 weeks after application
Procedure: Field and greenhouse studies were conducted to determine if there may be any synergistic response when penoxsulam is combined with other herbicides for post emergence broadleaf or sedge control. Field studies were conducted in established turfgrass sites containing a natural population of target broadleaf weeds. Replicated trials, containing a minimum of three replications and having individual plots ranging in size from 25 to 50 ft. sq (2.3 to 4.6 square meters), were initiated in the late spring when turf and weeds were actively growing. Granule treatments were uniformly applied to individual plots using a common hand-shaker method. Applications were made in the early morning when dew was present. Natural rainfall and supplemental irrigation were used to maintain healthy turf and active weed growth throughout the study period. Control of each weed species in the study site was made at 2, 4 and 8 weeks after treatment. Control was determined visually by comparing treated and untreated weeds and scored on a 0 to 100 percent scale where 0 corresponds to no control and 100 corresponds to complete kill.
Component A was penoxsulam at 0.02 or 0.04 lb ai/A. Component B was dicamba at 0.1 lb ai/A. Individual products and mixture were applied on a 30-3-4 granule fertilizer formulated to deliver 116 pounds fertilizer per acre (129 kg per hectare). Loadings for the individual component on the fertilizer were: • Penoxsulam 22.4 gai/Ha (0.02 lb ai/A)=0.017% • Penoxsulam 44.9 gai/Ha (0.04 lb ai/A)=0.034% • Dicamba 112 gae/Ha (0.1 lb ai/A)=0.086%
For combinations the same loadings were applied to the same granule carrier and applied as a single product to test area.

SMILES: COc1c(Cl)ccc(Cl)c1C(=O)O [Dicamba, dicamba, reference compound]
- % Control Component B: 29%
